Laboratory results reported in PubChem BioAssay (NCI).
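Each compound was tested at five concentrations against cells in 96-well plates for 48 hours. At the TGI there is no net growth.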

Legend:
Assay in all cases: DTP human tumour cell line panel, 48 h
SF-295 CNS = test system: SF-295 CNS
OVCAR-5 ovarian = test system: OVCAR-5 ovarian
SNB-75 CNS = test system: SNB-75 CNS
SK-MEL-5 melanoma = test system: SK-MEL-5 melanoma
LOX IMVI melanoma = test system: LOX IMVI melanoma
CCRF-CEM leukemia = test system: CCRF-CEM leukemia
OVCAR-8 ovarian = test system: OVCAR-8 ovarian
SK-MEL-28 melanoma = test system: SK-MEL-28 melanoma
KM12 colon = test system: KM12 colon
HCC-2998 colon = test system: HCC-2998 colon
786-0 renal = test system: 786-0 renal
MALME-3M melanoma = test system: MALME-3M melanoma
SK-OV-3 ovarian = test system: SK-OV-3 ovarian
HCT-15 colon = test system: HCT-15 colon
UACC-62 melanoma = test system: UACC-62 melanoma
DLD-1 colon = test system: DLD-1 colon
HCT-116 colon = test system: HCT-116 colon
COLO 205 colon = test system: COLO 205 colon
UO-31 renal = test system: UO-31 renal
IGROV1 ovarian = test system: IGROV1 ovarian
M14 melanoma = test system: M14 melanoma
M19-MEL melanoma = test system: M19-MEL melanoma
MOLT-4 leukemia = test system: MOLT-4 leukemia
NCI-H522 lung = test system: NCI-H522 lung
K-562 leukemia = test system: K-562 leukemia
DMS 114 small cell lung = test system: DMS 114 small cell lung
EKVX NSCLC = test system: EKVX NSCLC
OVCAR-4 ovarian = test system: OVCAR-4 ovarian
SNB-78 CNS = test system: SNB-78 CNS
ACHN renal = test system: ACHN renal
A549 NSCLC = test system: A549 NSCLC
XF 498 CNS = test system: XF 498 CNS
LXFL 529 NSCLC = test system: LXFL 529 NSCLC
NCI-H23 lung = test system: NCI-H23 lung
HOP-92 NSCLC = test system: HOP-92 NSCLC
SNB-19 CNS = test system: SNB-19 CNS
DMS 273 small cell lung = test system: DMS 273 small cell lung
RXF-631 renal = test system: RXF-631 renal
SW-620 colon = test system: SW-620 colon
HT29 colon = test system: HT29 colon
UACC-257 melanoma = test system: UACC-257 melanoma
HOP-18 NSCLC = test system: HOP-18 NSCLC
HOP-62 NSCLC = test system: HOP-62 NSCLC
SK-MEL-2 melanoma = test system: SK-MEL-2 melanoma
OVCAR-3 ovarian = test system: OVCAR-3 ovarian
RXF 393 renal = test system: RXF 393 renal
A498 renal = test system: A498 renal
RPMI-8226 leukemia = test system: RPMI-8226 leukemia
TK-10 renal = test system: TK-10 renal
KM20L2 colon = test system: KM20L2 colon
SF-539 CNS = test system: SF-539 CNS
SF-268 CNS = test system: SF-268 CNS
CAKI-1 renal = test system: CAKI-1 renal
U251 CNS = test system: U251 CNS
SN12C renal = test system: SN12C renal
NCI-H226 lung = test system: NCI-H226 lung
NCI-H460 lung = test system: NCI-H460 lung
HL-60(TB) leukemia = test system: HL-60(TB) leukemia

Nc1ccc(C(=O)N/C(=C\C=C\c2ccco2)c2nc3c4c(ccc3[nH]2)C(=O)c2ccccc2C4=O)cc1
TGI (SF-295 CNS): > 100 µM
TGI (OVCAR-5 ovarian): > 100 µM
TGI (SNB-75 CNS): 62.1 µM
TGI (SK-MEL-5 melanoma): > 100 µM
TGI (LOX IMVI melanoma): > 100 µM
TGI (CCRF-CEM leukemia): > 100 µM
TGI (OVCAR-8 ovarian): > 100 µM
TGI (SK-MEL-28 melanoma): > 100 µM
TGI (KM12 colon): > 100 µM
TGI (HCC-2998 colon): > 100 µM
TGI (786-0 renal): > 100 µM
TGI (MALME-3M melanoma): > 100 µM
TGI (SK-OV-3 ovarian): 81.3 µM
TGI (HCT-15 colon): > 100 µM
TGI (UACC-62 melanoma): > 100 µM
TGI (DLD-1 colon): 58.3 µM
TGI (HCT-116 colon): > 100 µM
TGI (COLO 205 colon): > 100 µM
TGI (UO-31 renal): 17.9 µM
TGI (IGROV1 ovarian): > 100 µM
TGI (M14 melanoma): > 100 µM
TGI (M19-MEL melanoma): > 100 µM
TGI (MOLT-4 leukemia): 55.6 µM
TGI (NCI-H522 lung): > 100 µM
TGI (K-562 leukemia): > 100 µM
TGI (DMS 114 small cell lung): > 100 µM
TGI (EKVX NSCLC): > 100 µM
TGI (OVCAR-4 ovarian): > 100 µM
TGI (SNB-78 CNS): > 100 µM
TGI (ACHN renal): 82 µM
TGI (A549 NSCLC): 97 µM
TGI (XF 498 CNS): > 100 µM
TGI (LXFL 529 NSCLC): > 100 µM
TGI (NCI-H23 lung): > 100 µM
TGI (HOP-92 NSCLC): > 100 µM
TGI (SNB-19 CNS): > 100 µM
TGI (DMS 273 small cell lung): > 100 µM
TGI (RXF-631 renal): > 100 µM
TGI (SW-620 colon): > 100 µM
TGI (HT29 colon): > 100 µM
TGI (UACC-257 melanoma): > 100 µM
TGI (HOP-18 NSCLC): > 100 µM
TGI (HOP-62 NSCLC): > 100 µM
TGI (SK-MEL-2 melanoma): 78.6 µM
TGI (OVCAR-3 ovarian): > 100 µM
TGI (RXF 393 renal): 95 µM
TGI (A498 renal): > 100 µM
TGI (RPMI-8226 leukemia): > 100 µM
TGI (TK-10 renal): 82 µM
TGI (KM20L2 colon): > 100 µM
TGI (SF-539 CNS): > 100 µM
TGI (SF-268 CNS): > 100 µM
TGI (CAKI-1 renal): > 100 µM
TGI (U251 CNS): > 100 µM
TGI (SN12C renal): > 100 µM

COc1ccc(NC(=O)NS(=O)(=O)c2ccc(C)cc2)nn1
TGI (SF-295 CNS): > 100 µM
TGI (OVCAR-5 ovarian): > 100 µM
TGI (SNB-75 CNS): > 100 µM
TGI (SK-MEL-5 melanoma): > 100 µM
TGI (LOX IMVI melanoma): > 100 µM
TGI (NCI-H226 lung): > 100 µM
TGI (CCRF-CEM leukemia): > 100 µM
TGI (OVCAR-8 ovarian): > 100 µM
TGI (SK-MEL-28 melanoma): > 100 µM
TGI (KM12 colon): > 100 µM
TGI (HCC-2998 colon): > 100 µM
TGI (786-0 renal): > 100 µM
TGI (MALME-3M melanoma): > 100 µM
TGI (SK-OV-3 ovarian): > 100 µM
TGI (HCT-15 colon): > 100 µM
TGI (UACC-62 melanoma): > 100 µM
TGI (DLD-1 colon): > 100 µM
TGI (COLO 205 colon): > 100 µM
TGI (UO-31 renal): > 100 µM
TGI (NCI-H460 lung): > 100 µM
TGI (IGROV1 ovarian): > 100 µM
TGI (M14 melanoma): > 100 µM
TGI (M19-MEL melanoma): > 100 µM
TGI (MOLT-4 leukemia): > 100 µM
TGI (NCI-H522 lung): > 100 µM
TGI (K-562 leukemia): > 100 µM
TGI (DMS 114 small cell lung): > 100 µM
TGI (EKVX NSCLC): > 100 µM
TGI (OVCAR-4 ovarian): > 100 µM
TGI (SNB-78 CNS): > 100 µM
TGI (ACHN renal): > 100 µM
TGI (A549 NSCLC): > 100 µM
TGI (XF 498 CNS): > 100 µM
TGI (LXFL 529 NSCLC): > 100 µM
TGI (NCI-H23 lung): > 100 µM
TGI (HOP-92 NSCLC): > 100 µM
TGI (SNB-19 CNS): > 100 µM
TGI (HL-60(TB) leukemia): > 100 µM
TGI (DMS 273 small cell lung): > 100 µM
TGI (RXF-631 renal): > 100 µM
TGI (SW-620 colon): > 100 µM
TGI (HT29 colon): > 100 µM
TGI (UACC-257 melanoma): > 100 µM
TGI (HOP-18 NSCLC): > 100 µM
TGI (HOP-62 NSCLC): > 100 µM
TGI (SK-MEL-2 melanoma): > 100 µM
TGI (OVCAR-3 ovarian): > 100 µM
TGI (A498 renal): > 100 µM
TGI (RPMI-8226 leukemia): > 100 µM
TGI (TK-10 renal): > 100 µM
TGI (KM20L2 colon): > 100 µM
TGI (SF-539 CNS): > 100 µM
TGI (SF-268 CNS): > 100 µM
TGI (CAKI-1 renal): > 100 µM
TGI (U251 CNS): > 100 µM
TGI (SN12C renal): > 100 µM

N#CC1C(=O)C(=O)N(c2ccccc2)C1=O (centres undefined)
TGI (SF-295 CNS): > 100 µM
TGI (OVCAR-5 ovarian): > 100 µM
TGI (SNB-75 CNS): > 100 µM
TGI (SK-MEL-5 melanoma): > 100 µM
TGI (LOX IMVI melanoma): > 100 µM
TGI (NCI-H226 lung): > 100 µM
TGI (OVCAR-8 ovarian): > 100 µM
TGI (SK-MEL-28 melanoma): > 100 µM
TGI (KM12 colon): > 100 µM
TGI (HCC-2998 colon): > 100 µM
TGI (786-0 renal): > 100 µM
TGI (MALME-3M melanoma): > 100 µM
TGI (SK-OV-3 ovarian): > 100 µM
TGI (HCT-15 colon): > 100 µM
TGI (UACC-62 melanoma): > 100 µM
TGI (HCT-116 colon): > 100 µM
TGI (COLO 205 colon): > 100 µM
TGI (UO-31 renal): > 100 µM
TGI (NCI-H460 lung): > 100 µM
TGI (IGROV1 ovarian): > 100 µM
TGI (M14 melanoma): > 100 µM
TGI (M19-MEL melanoma): > 100 µM
TGI (NCI-H522 lung): > 100 µM
TGI (K-562 leukemia): > 100 µM
TGI (DMS 114 small cell lung): > 100 µM
TGI (EKVX NSCLC): > 100 µM
TGI (OVCAR-4 ovarian): > 100 µM
TGI (SNB-78 CNS): > 100 µM
TGI (ACHN renal): > 100 µM
TGI (XF 498 CNS): > 100 µM
TGI (LXFL 529 NSCLC): > 100 µM
TGI (NCI-H23 lung): > 100 µM
TGI (HOP-92 NSCLC): > 100 µM
TGI (SNB-19 CNS): > 100 µM
TGI (DMS 273 small cell lung): > 100 µM
TGI (RXF-631 renal): > 100 µM
TGI (SW-620 colon): > 100 µM
TGI (HT29 colon): > 100 µM
TGI (UACC-257 melanoma): > 100 µM
TGI (HOP-18 NSCLC): > 100 µM
TGI (HOP-62 NSCLC): > 100 µM
TGI (SK-MEL-2 melanoma): > 100 µM
TGI (OVCAR-3 ovarian): > 100 µM
TGI (RXF 393 renal): > 100 µM
TGI (A498 renal): > 100 µM
TGI (RPMI-8226 leukemia): > 100 µM
TGI (TK-10 renal): > 100 µM
TGI (KM20L2 colon): > 100 µM
TGI (SF-539 CNS): > 100 µM
TGI (SF-268 CNS): > 100 µM
TGI (CAKI-1 renal): > 100 µM
TGI (U251 CNS): > 100 µM
TGI (SN12C renal): > 100 µM
